Assay results: ChEMBL document CHEMBL1201862, “PubChem BioAssay data set” (2004)
The source made the active and inactive calls.

How the values were obtained:
[1] = molecular target: Alkaline phosphatase, placental type (Homo sapiens, UniProt P05187); experiment: PLAP enzyme inhibitors, confirmation, biochemical, luminescence (AID 1512); assay type: functional
[2] = molecular target: T1, Alkaline phosphatase, tissue-nonspecific isozyme (Homo sapiens, UniProt P05186); experiment: human TNAP enzyme inhibitors, SAR follow-up, biochemical, luminescent, dose response (AID 1056)
T1 sequence (P05186 whole entry): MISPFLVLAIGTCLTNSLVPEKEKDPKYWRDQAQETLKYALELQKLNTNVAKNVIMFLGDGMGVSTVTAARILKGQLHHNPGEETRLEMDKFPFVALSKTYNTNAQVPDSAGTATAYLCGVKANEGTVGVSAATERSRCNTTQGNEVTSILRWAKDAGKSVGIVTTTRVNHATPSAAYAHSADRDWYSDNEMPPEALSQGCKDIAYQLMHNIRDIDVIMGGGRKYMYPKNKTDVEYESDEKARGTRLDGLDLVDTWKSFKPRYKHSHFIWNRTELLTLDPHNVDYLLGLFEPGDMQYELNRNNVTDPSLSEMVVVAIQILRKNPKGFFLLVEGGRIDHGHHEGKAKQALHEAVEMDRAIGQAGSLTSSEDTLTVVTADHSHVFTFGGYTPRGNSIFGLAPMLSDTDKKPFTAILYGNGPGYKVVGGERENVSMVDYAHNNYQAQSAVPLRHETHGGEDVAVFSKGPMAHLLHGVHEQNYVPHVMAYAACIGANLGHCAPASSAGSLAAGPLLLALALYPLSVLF

[3] = system: HEK293; experiment: NOD1 signaling inhibitors, primary screen, cell-based, luminescence, uHTS (AID 1578); assay type: functional; conditions: Homo sapiens
[4] = system: Streptococcus sp. 'group A'; experiment: growth inhibition of control SK(-) GAS strain, dose response, counter-screen for streptokinase expression inhibitor project, luminescence, kanamycin, BacTiterGlo, confirmation (AID 1900); assay type: functional, organism-based
[5] = system: HEK293; experiment: cells; assay type: functional, cell-based; conditions: Homo sapiens
[6] = molecular target: T2, Streptokinase A (Streptococcus pyogenes serotype M1, UniProt P10520); experiment: S. pyogenes streptokinase expression inhibitors, potency, dose response, plasminogen activation absorbance, OD405 (AID 1914); assay type: functional, Streptococcus pyogenes M1 GAS;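 also: secreted streptokinase activity via plasminogen activation per viability signal from cell pellet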
T2 sequence (P10520 whole entry): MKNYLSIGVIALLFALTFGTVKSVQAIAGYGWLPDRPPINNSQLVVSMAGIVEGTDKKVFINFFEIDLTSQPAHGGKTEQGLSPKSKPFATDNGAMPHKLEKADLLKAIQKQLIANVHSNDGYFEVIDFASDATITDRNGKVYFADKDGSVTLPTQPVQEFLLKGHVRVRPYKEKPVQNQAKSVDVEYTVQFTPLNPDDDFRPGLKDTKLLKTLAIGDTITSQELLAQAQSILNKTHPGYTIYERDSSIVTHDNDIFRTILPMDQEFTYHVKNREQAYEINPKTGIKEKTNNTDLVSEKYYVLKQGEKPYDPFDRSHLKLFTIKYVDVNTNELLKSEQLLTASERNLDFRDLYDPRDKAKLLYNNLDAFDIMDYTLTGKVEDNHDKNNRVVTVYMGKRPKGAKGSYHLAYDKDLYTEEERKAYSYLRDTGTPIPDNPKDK

[7] = system: HEK293; experiment: cells; assay type: functional, cell-based; conditions: Homo sapiens; remark: listed apart in the source
[8] = molecular target: Nucleotide-binding oligomerization domain-containing protein 2 (Homo sapiens, UniProt Q9HC29); experiment: NOD2 signaling inhibitors, cell-based, luminescence, uHTS, HEK293 (AID 1566); assay type: functional
[9] = system: HEK293; experiment: NOD2 signaling inhibitors in MDP-stimulated cells, cell-based, uHTS, luminescence (AID 2001); assay type: functional; conditions: Homo sapiens
[10] = system: HEK293; experiment: cells; assay type: functional, cell-based; conditions: Homo sapiens; remark: listed apart in the source
[11] = system: Streptococcus; experiment: Group A Streptococcus viability loss, dose response, counter-screen for streptokinase expression inhibitor project, luminescence, BacTiterGlo (AID 1915); assay type: functional, organism-based;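 also: potency for reduction of bacterial viability or growth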
[12] = molecular target: NS3 (Hepatitis C virus, UniProt A3EZJ3); experiment: PubChem AID 2173; design: species or system Hepacivirus hominis
[13] = system: Vero; experiment: cells; assay type: functional, cell-based; conditions: Chlorocebus sabaeus
[14] = system: Vero; experiment: cells; assay type: functional; conditions: Chlorocebus sabaeus
[15] = molecular target: Paired box protein Pax-8 (Homo sapiens, UniProt Q06710); experiment: inhibitors of PAX8-driven TPO luciferase reporter, dose response, RMG-I cells, cherry-pick (AID 687027); assay type: functional, cell-based;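 also: luciferase reporter driven by Pax8 target thyroperoxidase promoter measured by SteadyGlo luminescence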
[16] = NIH-3T3 fibroblast cytotoxicity, dose response, cytotoxicity control, cell-based, fluorescence, Alamar Blue, secondary assay (AID 2327); assay type: functional;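 also: NIH-3T3 mouse fibroblasts cultured with fluconazole at 8 µg/mL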
[17] = C. albicans growth with fluconazole, confirmation, fluorescence, retest (AID 2467); assay type: functional, cell-based
[18] = inhibitors of intracellular T. cruzi replication, confirmation, NIH3T3 host cells, beta-gal luminescence (AID 2044); assay type: functional, cell-based;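 also: intracellular parasites grown in NIH/3T3 mouse fibroblasts as host cells; luminescent beta-galactosidase reporter signal from transgenic T. cruzi replicating inside host cells; inhibitors lower the luminescence signal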
[19] = cytotoxicity toward NIH3T3 fibroblasts, dose response, counter-screen, cell-based, ATP luminescence, mouse fibroblasts (AID 2010); assay type: functional;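 also: cells exposed to compound for about 90 hours before reading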
[20] = molecular target: DNA dC->dU-editing enzyme APOBEC-3A (Homo sapiens, UniProt P31941); experiment: Dose Response confirmation of small molecule APOBEC3A DNA Deaminase Inhibitors via a fluorescence-based single-stranded DNA deaminase assay. [Related pubchem assays (depositor defined):AID493011, AID493024]; assay type: functional
[21] = molecular target: DNA dC->dU-editing enzyme APOBEC-3G (Homo sapiens, UniProt Q9HC16); assay type: functional;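 also: Dose-response counterscreen measuring inhibition of APOBEC3G DNA deaminase activity, run while confirming APOBEC3A inhibitors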
[22] = molecular target: Cytochrome P450 2C19 (Homo sapiens, UniProt P33261); experiment: Cytochrome panel assay with activity outcomes. Panel member name: p450-cyp2c19 Compounds with AC50 equal or less than 10 uM are considered active; assay type: functional; conditions: read-out: AC50
[23] = molecular target: Cytochrome P450 3A4 (Homo sapiens, UniProt P08684);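 also: CYP3A4 tested as one member of a cytochrome P450 panel screen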
[24] = molecular target: T3, X-box-binding protein 1 (Homo sapiens, UniProt P17861); assay type: functional, Cricetulus griseus;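 also: confirmatory dose-response counter-screen serving a CHOP assay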
T3 sequence (P17861 whole entry): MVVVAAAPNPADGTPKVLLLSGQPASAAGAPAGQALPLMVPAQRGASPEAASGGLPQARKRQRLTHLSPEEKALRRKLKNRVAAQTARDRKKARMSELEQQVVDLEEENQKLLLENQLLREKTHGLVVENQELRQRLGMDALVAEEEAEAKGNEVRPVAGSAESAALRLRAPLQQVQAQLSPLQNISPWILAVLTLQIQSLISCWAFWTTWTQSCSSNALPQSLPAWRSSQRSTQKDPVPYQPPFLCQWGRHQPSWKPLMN

[25] = molecular target: T4, E3 ubiquitin-protein ligase XIAP (Homo sapiens, UniProt P98170); experiment: Counter Screen using XIAP-Bir3 for Chemical Antagonists of Bir1/2 domains of IAP-family anti-apoptotic proteins. [Related pubchem assays (depositor defined):AID1018, AID1449, AID1514, AID1638, AID1749, AID1750, AID488957, AID488963]
[26] = molecular target: T4, E3 ubiquitin-protein ligase XIAP; experiment: XIAP antagonists, biochemical, IAP family, fluorescence polarization (AID 1018); assay type: functional
[27] = system: HeLa; experiment: HeLa cell cytotoxicity, dose response, cytotoxicity control, 24 h, cherry-picked samples (AID 504726); assay type: functional, cell-based; conditions: Homo sapiens;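 also: potency for cytotoxicity as loss of luminescence signal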
[28] = molecular target: Prothrombin (Homo sapiens, UniProt P00734); experiment: Thrombin 1536 HTS Dose Response Confirmation. [Related pubchem assays: 1046 (Thrombin 1536 HTS; hits were confirmed in this assay)]; assay type: functional
[29] = molecular target: Peroxisome proliferator-activated receptor gamma/Nuclear receptor coactivator 2 (Homo sapiens, UniProt P37231); assay type: functional;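 also: agonist potency for raising coactivator recruitment to the receptor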
[30] = molecular target: Peroxisome proliferator-activated receptor gamma/Nuclear receptor coactivator 1 (Homo sapiens, UniProt P37231); assay type: functional;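 also: agonist potency as compounds enhance coactivator SRC-1 recruitment to PPARgamma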
[31] = molecular target: Peroxisome proliferator-activated receptor gamma/Nuclear receptor coactivator 3 (Homo sapiens, UniProt P37231); assay type: functional;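 also: agonist potency for raising coactivator recruitment to the receptor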
[32] = Luminescence Cell-Based Dose Retest to Confirm Inhibitors of Cancer Stem Cells. [Related pubchem assays (depositor defined):AID2717, AID2721]; assay type: functional; conditions: Homo sapiens
[33] = cytotoxicity in HMLE control line with eGFP shRNA, dose response, counter-screen for HMLE_sh_ECad selective toxicity project, cell-based, HMLE_sh_eGFP, luminescence (AID 463074); assay type: functional, Homo sapiens;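 also: HMLE human mammary epithelial cells expressing control shRNA against eGFP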
[34] = molecular target: T5, fMet-Leu-Phe receptor (Homo sapiens, UniProt P21462); experiment: FPR ligands, dose response (AID 519); assay type: functional
T5 sequence (P21462 whole entry): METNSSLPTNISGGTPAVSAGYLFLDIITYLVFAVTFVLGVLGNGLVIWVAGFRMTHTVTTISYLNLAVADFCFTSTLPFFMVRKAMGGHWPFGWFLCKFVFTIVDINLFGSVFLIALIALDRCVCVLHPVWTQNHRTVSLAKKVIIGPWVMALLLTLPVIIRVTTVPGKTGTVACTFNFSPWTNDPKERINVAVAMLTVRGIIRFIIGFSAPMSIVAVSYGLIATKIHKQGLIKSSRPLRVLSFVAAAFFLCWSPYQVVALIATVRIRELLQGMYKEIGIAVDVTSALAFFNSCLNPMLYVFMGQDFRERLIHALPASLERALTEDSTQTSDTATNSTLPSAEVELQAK

[35] = molecular target: T6, Bcl-2-related protein A1 (Mus musculus, UniProt Q07440); assay type: functional;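 also: confirmatory dose–response counterscreen on Bfl-1, used to check hits from a UBC13 polyubiquitin inhibitor campaign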
T6 sequence (Q07440 whole entry): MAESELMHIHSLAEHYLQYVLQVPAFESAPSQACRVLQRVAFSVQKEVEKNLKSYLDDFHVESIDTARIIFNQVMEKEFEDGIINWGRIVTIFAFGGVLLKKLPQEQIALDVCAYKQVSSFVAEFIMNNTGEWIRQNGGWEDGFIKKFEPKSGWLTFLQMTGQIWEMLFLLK

[36] = molecular target: T7, Ubiquitin-conjugating enzyme E2 N (Homo sapiens, UniProt P61088); assay type: functional;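 also: Dose-response confirmation in a TR-FRET assay detecting UBC13-driven polyubiquitin chain formation, inhibition measured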
T7 sequence (P61088 whole entry): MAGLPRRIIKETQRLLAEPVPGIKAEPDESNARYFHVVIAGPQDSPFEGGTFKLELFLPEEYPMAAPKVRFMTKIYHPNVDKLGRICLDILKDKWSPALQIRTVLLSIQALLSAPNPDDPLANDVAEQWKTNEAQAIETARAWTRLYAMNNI

Chain of Nucleotide-binding oligomerization domain-containing protein 2 (Q9HC29 whole entry, the tested form may be a part): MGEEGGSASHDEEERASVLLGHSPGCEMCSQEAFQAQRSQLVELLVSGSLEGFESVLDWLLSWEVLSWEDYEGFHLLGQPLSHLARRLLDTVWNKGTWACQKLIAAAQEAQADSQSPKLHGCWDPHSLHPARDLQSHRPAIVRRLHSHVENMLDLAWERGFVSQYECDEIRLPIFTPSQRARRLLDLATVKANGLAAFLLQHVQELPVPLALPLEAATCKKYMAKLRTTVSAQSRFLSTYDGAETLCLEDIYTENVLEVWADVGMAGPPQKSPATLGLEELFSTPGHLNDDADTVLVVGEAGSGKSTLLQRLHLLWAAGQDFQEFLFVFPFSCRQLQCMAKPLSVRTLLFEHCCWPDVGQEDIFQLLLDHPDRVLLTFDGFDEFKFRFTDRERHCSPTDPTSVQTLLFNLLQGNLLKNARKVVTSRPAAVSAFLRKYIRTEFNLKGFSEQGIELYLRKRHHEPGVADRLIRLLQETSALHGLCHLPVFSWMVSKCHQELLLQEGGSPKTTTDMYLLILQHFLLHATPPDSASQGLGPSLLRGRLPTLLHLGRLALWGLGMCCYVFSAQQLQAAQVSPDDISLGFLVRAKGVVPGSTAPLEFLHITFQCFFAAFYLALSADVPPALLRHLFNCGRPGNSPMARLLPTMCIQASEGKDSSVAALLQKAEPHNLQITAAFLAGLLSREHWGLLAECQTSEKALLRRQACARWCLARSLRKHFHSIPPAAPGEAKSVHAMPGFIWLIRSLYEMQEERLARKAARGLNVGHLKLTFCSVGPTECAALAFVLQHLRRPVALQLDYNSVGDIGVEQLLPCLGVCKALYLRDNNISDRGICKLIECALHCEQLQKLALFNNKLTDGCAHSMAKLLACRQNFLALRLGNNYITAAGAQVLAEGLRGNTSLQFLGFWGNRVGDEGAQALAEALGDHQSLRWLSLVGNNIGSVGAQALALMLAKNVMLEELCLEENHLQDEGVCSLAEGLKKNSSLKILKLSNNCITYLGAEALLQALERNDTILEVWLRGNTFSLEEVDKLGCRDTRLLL
T4 sequence (P98170 whole entry): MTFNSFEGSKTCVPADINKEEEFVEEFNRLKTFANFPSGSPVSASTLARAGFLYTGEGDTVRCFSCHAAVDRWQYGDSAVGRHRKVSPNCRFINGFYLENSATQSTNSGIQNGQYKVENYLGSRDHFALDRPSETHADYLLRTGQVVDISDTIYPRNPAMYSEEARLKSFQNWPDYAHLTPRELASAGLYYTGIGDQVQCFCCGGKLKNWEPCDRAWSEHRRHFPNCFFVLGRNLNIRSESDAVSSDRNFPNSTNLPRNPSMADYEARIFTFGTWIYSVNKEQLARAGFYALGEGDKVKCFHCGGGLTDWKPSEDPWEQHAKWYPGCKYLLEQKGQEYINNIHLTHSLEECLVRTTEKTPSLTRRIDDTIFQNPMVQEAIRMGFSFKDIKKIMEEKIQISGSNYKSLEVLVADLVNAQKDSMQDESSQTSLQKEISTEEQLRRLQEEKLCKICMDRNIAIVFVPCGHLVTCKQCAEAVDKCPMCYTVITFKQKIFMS
Chain of Alkaline phosphatase, placental type (P05187 whole entry): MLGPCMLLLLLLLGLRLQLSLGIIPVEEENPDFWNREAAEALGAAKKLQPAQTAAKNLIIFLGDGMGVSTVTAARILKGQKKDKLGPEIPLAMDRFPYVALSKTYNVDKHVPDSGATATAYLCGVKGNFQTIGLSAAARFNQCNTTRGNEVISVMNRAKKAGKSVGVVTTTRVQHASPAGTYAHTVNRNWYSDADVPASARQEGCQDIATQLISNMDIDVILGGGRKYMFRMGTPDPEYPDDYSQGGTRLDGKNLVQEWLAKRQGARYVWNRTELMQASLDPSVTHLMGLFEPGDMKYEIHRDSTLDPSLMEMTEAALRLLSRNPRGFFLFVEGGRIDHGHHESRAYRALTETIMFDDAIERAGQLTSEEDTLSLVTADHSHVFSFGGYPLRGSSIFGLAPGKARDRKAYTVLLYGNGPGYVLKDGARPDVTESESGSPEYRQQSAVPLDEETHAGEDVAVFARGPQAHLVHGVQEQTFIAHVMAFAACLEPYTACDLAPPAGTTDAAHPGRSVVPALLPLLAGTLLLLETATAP
Chain of NS3 (A3EZJ3 whole entry): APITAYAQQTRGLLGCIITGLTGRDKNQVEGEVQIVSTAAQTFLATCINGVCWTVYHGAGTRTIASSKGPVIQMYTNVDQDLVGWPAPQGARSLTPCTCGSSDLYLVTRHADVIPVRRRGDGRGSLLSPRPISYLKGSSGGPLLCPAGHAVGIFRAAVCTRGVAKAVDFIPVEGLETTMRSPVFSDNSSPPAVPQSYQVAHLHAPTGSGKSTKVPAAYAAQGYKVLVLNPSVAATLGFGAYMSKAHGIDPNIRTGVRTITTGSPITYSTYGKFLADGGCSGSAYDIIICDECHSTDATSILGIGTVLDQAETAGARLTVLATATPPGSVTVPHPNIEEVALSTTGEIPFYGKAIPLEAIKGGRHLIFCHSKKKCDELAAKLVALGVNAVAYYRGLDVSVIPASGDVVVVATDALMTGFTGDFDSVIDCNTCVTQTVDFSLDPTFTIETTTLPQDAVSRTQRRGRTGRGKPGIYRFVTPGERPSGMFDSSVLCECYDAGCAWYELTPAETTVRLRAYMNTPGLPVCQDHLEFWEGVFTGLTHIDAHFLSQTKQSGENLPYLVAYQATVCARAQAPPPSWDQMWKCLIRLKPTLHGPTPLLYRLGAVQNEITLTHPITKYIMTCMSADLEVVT
Chain of Peroxisome proliferator-activated receptor gamma/Nuclear receptor coactivator 3 (P37231 whole entry): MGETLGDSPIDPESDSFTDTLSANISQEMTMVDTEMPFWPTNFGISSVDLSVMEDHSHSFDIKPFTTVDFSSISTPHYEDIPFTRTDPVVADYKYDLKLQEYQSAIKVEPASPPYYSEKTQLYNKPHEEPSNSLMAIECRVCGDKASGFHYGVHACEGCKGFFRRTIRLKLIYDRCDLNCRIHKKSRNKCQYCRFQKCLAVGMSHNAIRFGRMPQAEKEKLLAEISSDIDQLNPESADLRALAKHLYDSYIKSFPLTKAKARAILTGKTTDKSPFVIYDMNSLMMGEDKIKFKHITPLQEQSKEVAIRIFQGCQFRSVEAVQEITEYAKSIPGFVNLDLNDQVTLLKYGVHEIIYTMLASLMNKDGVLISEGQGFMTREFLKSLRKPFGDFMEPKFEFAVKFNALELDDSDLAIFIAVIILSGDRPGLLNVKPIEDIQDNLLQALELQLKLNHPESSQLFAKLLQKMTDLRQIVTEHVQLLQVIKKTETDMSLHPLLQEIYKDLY
Chain of Peroxisome proliferator-activated receptor gamma/Nuclear receptor coactivator 3 (Q9Y6Q9 whole entry, further chain): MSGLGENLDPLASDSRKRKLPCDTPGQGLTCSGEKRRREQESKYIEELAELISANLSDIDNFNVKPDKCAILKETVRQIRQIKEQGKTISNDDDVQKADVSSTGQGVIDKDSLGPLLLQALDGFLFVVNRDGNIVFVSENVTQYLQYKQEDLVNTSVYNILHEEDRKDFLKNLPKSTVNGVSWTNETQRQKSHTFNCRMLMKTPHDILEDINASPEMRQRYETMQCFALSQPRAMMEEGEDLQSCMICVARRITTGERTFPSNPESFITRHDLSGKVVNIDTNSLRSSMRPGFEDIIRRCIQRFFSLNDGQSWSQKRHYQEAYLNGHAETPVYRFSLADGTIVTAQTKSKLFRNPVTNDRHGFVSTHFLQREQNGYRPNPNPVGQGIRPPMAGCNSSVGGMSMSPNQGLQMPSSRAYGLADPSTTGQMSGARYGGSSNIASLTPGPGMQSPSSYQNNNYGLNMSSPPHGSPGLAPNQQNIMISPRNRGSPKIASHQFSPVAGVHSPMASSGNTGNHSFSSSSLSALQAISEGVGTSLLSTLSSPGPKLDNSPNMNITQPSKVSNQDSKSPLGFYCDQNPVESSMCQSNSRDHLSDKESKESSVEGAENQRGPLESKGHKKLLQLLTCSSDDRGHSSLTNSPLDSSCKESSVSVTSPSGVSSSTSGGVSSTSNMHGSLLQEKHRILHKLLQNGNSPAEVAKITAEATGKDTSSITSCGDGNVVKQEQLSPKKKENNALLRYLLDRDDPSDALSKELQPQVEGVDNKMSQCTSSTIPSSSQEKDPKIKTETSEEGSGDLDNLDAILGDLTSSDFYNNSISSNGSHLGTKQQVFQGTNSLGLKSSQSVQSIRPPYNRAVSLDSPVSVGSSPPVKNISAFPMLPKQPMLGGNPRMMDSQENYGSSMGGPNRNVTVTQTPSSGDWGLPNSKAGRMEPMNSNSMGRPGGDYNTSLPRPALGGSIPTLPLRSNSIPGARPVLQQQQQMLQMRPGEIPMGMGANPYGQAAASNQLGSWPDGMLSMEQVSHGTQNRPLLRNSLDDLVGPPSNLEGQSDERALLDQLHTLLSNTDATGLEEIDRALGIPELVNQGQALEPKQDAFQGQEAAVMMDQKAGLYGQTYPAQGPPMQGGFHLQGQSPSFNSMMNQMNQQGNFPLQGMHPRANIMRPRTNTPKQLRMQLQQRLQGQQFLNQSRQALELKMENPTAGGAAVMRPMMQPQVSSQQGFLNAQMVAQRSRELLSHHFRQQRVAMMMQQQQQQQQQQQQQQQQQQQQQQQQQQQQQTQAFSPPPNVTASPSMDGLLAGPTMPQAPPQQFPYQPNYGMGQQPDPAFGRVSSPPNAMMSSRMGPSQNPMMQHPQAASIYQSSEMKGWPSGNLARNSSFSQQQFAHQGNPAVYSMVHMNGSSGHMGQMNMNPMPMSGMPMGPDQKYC
Chain of DNA dC->dU-editing enzyme APOBEC-3G (Q9HC16 whole entry): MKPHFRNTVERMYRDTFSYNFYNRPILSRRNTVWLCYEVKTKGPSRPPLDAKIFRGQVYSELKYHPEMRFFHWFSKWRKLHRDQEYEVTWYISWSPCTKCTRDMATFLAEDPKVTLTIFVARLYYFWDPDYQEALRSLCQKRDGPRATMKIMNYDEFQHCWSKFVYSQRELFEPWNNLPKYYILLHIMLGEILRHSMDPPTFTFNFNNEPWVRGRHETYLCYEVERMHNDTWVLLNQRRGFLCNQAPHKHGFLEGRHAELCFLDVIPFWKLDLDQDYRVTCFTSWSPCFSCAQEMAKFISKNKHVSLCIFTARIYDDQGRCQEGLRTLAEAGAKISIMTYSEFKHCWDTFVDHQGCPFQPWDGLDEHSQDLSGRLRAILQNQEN

Cc1cc(C)nc(SCC(=O)c2ccc(Cl)cc2Cl)n1
IC50 [1]: > 100 µM (inactive)
IC50 [2]: > 100 µM (inactive)

CCCCc1nc(N2CCN(C(=O)c3ccco3)CC2)c(C#N)c2c1CCCC2
EC50 [3]: 10.1 µM (active)
EC50 [4]: 7.4 µM (active)
IC50 [5]: 11.9 µM (active)
EC50 [6]: 8.54 µM (active)
IC50 [7]: 15.6 µM (active)
EC50 [8]: 7.59 µM (active)
IC50 [9]: 12.2 µM (inactive)
IC50 [10]: > 20 µM (inactive)
EC50 [11]: 14.4 µM (active)

CNc1ccc(Br)cc(C(=O)/C=C/c2cc(OC)ccc2OC)c1=O
IC50 [12]: 11.3 µM (not active)
IC50 [13]: 7.29 µM (active)
CC50 [14]: 23.1 µM (active)
AC50 [15]: 7.83 µM (active)

Cc1ccc(-c2nnc(SCC(=O)c3ccc(O)c(O)c3)n2C)cc1
IC50 [1]: 11.7 µM (active)
IC50 [2]: > 100 µM (inactive)

Cc1ccc(C)c(N2CCN(C(=O)C34CC5CC(C3)CC(n3nnc(C)n3)(C5)C4)CC2)c1
EC50 [3]: 7.6 µM (active)
IC50 [5]: 6.27 µM (active)
IC50 [7]: 13.1 µM (active)
EC50 [8]: 5.6 µM (active)
IC50 [9]: 4.61 µM (active)
IC50 [10]: > 20 µM (inactive)

CN(/C=C/C1=[N+](C)c2ccccc2C1(C)C)c1ccccc1
EC50 [16]: > 160 µM (inactive)
EC50 [17]: > 38 µM (not active)
EC50 [18]: 0.335 µM (active)
EC50 [19]: > 60 µM (inconclusive)
IC50 [20]: 1.67 µM (active)
IC50 [21]: 2.31 µM (active)
AC50 [22]: 0.00708 µM (inconclusive)
AC50 [23]: 31.6 µM (inconclusive)

COc1cc(/C=N/NC(=O)Nc2ccccc2)ccc1OCCOc1ccccc1C
Absolute IC50 (XBP1) [24]: 10 µM

Cc1cc(=O)[nH]c(-n2[nH]c(C)cc2=O)n1
IC50 [1]: > 100 µM (inactive)

c1ccc(CCc2nc(-c3ccc(-n4cccc4)cc3)no2)cc1
IC50 [25]: > 100 µM (inactive)
IC50 [26]: > 100 µM (not active)

Cn1c(=O)c2c(nc(SCC(=O)NCc3ccc4c(c3)OCO4)n2Cc2ccc(Cl)cc2)n(C)c1=O
AC50 [27]: 64.6 µM (active)

Cc1nc(SCC(=O)N2CCc3ccccc3C2)c2c(C)c(C)sc2n1
EC50 [3]: 6.12 µM (active)
EC50 [8]: 9.64 µM (active)
IC50 [9]: 9.12 µM (inactive)
IC50 [10]: > 20 µM (inactive)
IC50 [28]: > 50 µM (not active)

COC(=O)c1ccc(/C=C/C(=O)c2ccc(OC)cc2)cc1
IC50 [25]: > 100 µM (inactive)
IC50 [26]: > 100 µM (not active)

COc1ccc(-c2nc(-c3ccc(NC(=O)c4ccc(Br)o4)cc3)no2)cc1OC
EC50 [29]: 49.2 µM (not active)
EC50 [30]: > 79.4 µM (not active)
EC50 [31]: > 79.4 µM (not active)
AC50 [32]: 2.21 µM (active)
AC50 [33]: 22.8 µM (active)
Absolute IC50 (XBP1) [24]: 10 µM
Ki [34]: > 66.7 µM (inactive)

Cc1ccc(N(C(=O)c2snc(C(N)=O)c2N)C(C(=O)NCC2CCCO2)c2c[nH]c3ccccc23)cc1 (configuration not stated)
IC50 [35]: > 20 µM (inactive)
IC50 [36]: 12.1 µM (active)
